From US20190030036A1, “PHOSPHODIESTERASE INHIBITOR TREATMENT” (Cyrano Therapeutics, Inc., priority 2013, published 2019)
Marks after values point to notes of the source that are not given here.

Tested on: patients with hyposmia
Test: Smell function (DT, RT, ME, H) by forced-choice, three-stimuli, stepwise-staircase technique with four odors; open trial of oral theophylline
Assay type: in vivo, human
Source text: Patients initially reported their sensory dysfunction as either loss of taste (e.g., flavor) and/or smell function. This subjective response was documented by objective psychophysical measurements of olfactory function administered to each patient by use of a forced-choice, three-stimuli, stepwise-staircase technique in a fixed, controlled design (1, 53). Efficacy of this technique and results of testing were previously documented in a double-blind clinical trial (53). Four odors were used; they were pyridine (dead-fish odor), nitrobenzene (bitter-almond odor), thiophene (petroleum-like odor) and amyl acetate (banana-oil odor). Detection thresholds (DT), recognition thresholds (RT) and magnitude estimation (ME) values for each odor were determined as previously described (1, 53). Thresholds were converted into bottle units (BU) as previously described (53) and results reported as M±SEM of correct responses for each odor in each treatment group; ME was reported in % and results calculated to obtain M±SEM for each treatment group for all correct responses using data for the four highest odor concentrations presented (from 10^−2M—an absolute odor concentration).
In addition, each patient graded the hedonic (H) value of each odor presented for these same odor concentrations (from 10^−2M—an absolute odor concentration using a −100−0−+100 scale). […] Results were obtained by calculating the arithmetical sum of each correct recognition response for each odor with respect to its pleasantness, unpleasantness or neutrality. Arithmetic M±SEM were obtained for each treatment group for each odor presented.
After determination of hyposmia, patients were treated in an open label, fixed design, controlled open trial. Patients were given an oral extended release theophylline in divided daily doses taken in the middle of breakfast and lunch. All patients were initially given 200 mg of theophylline; changes in this dose were made based upon subjective responses to therapy. If at a subsequent return visit, patients reported ≥5% subjective improvement in overall smell function, they continued on this same dose of theophylline and were reevaluated after four to six months of continued treatment. Results from any subsequent return from these improved patients were not included in any subsequent data report. All subsequent comparisons between treated and untreated patients were made only between those patients continuing in the study compared to their own measurements obtained in the untreated state. If patients reported <5% subjective improvement, their theophylline dose was increased by 200 mg daily and they were scheduled for retesting at the study site after two to four months at this new dosage. For patients that reported <5% improvement, this sequence continued until patients reached 800 mg of theophylline, at which time the study was considered completed.
Patients returned for reevaluation after two to four months of treatment. Measurements of blood serum theophylline were measured by a fluorescence polarization assay (Abbott, Chicago, Ill.). At this time, subjective changes in smell function were measured independently (compared to patient's memory of previous normal smell function monitored by use of the patients' daily measurements) using the scale from −100−0-+100 previously described. After independently recording their subjective responses, smell function was measured for all four odors with DT, RT, ME and H determined without recourse to prior measurements.
Since data for all measurements from each patient group (local or distant) on each dose level were combined mean and SEM for each measurement (DT, RT, ME, H) of smell function for each treatment group were calculated on this basis. Differences in measurements between before treatment and each treatment level were calculated and significance of differences estimated using Student t tests (values p<0.05 considered significant). […]

[1] = pyridine, oral theophylline 200 mg
[2] = pyridine, oral theophylline 200 mg daily, all patients (199)
[3] = pyridine, oral theophylline 200 mg, Type I hyposmia (57)
[4] = pyridine, oral theophylline 200 mg, Type II hyposmia (138)
[5] = pyridine, oral theophylline 200 mg, Type III hyposmia (4)
[6] = pyridine, oral theophylline 400 mg
[7] = pyridine, oral theophylline 400 mg daily, all patients (120)
[8] = pyridine, oral theophylline 400 mg, Type I hyposmia (33)
[9] = pyridine, oral theophylline 400 mg, Type II hyposmia (85)
[10] = pyridine, oral theophylline 400 mg, Type III hyposmia (2)
[11] = pyridine, oral theophylline 600 mg daily, all patients (160)
[12] = pyridine, oral theophylline 600 mg, Type I hyposmia (51)
[13] = pyridine, oral theophylline 600 mg, Type II hyposmia (105)
[14] = pyridine, oral theophylline 600 mg, Type III hyposmia (4)
[15] = pyridine, oral theophylline 800 mg daily, all patients (28)
[16] = pyridine, oral theophylline 800 mg, Type I hyposmia (12)
[17] = pyridine, oral theophylline 800 mg, Type II hyposmia (16)
[18] = thiophene, oral theophylline 200 mg
[19] = thiophene, oral theophylline 200 mg daily, all patients (199)
[20] = thiophene, oral theophylline 200 mg, Type I hyposmia (57)
[21] = thiophene, oral theophylline 200 mg, Type II hyposmia (138)
[22] = thiophene, oral theophylline 200 mg, Type III hyposmia (4)
[23] = thiophene, oral theophylline 400 mg
[24] = thiophene, oral theophylline 400 mg daily, all patients (120)
[25] = thiophene, oral theophylline 400 mg, Type I hyposmia (33)
[26] = thiophene, oral theophylline 400 mg, Type II hyposmia (85)
[27] = thiophene, oral theophylline 400 mg, Type III hyposmia (2)
[28] = thiophene, oral theophylline 600 mg daily, all patients (160)
[29] = thiophene, oral theophylline 600 mg, Type I hyposmia (51)
[30] = thiophene, oral theophylline 600 mg, Type II hyposmia (105)
[31] = thiophene, oral theophylline 600 mg, Type III hyposmia (4)
[32] = thiophene, oral theophylline 800 mg daily, all patients (28)
[33] = thiophene, oral theophylline 800 mg, Type I hyposmia (12)
[34] = thiophene, oral theophylline 800 mg, Type II hyposmia (16)

Cn1c(=O)c2[nH]cnc2n(C)c1=O [theophylline]
total mean increase of ME for all odors (oral theophylline 600 mg): 6.9%
decrease of H for pyridine (oral theophylline 800 mg daily): 55%
decrease of H for thiophene (oral theophylline 800 mg daily): 37%
increase of H for amyl acetate (oral theophylline 800 mg daily): about 50%
increase of H for nitrobenzene (oral theophylline 800 mg daily): about 50%
decrease of H values [1]: 2%
increase of ME values [1]: 6%
DT, detection threshold [2]: 7.6 ± 0.2^a BU
H, hedonic estimation [2]: −22 ± 2^a %
ME, magnitude estimation [2]: 28 ± 2^a %
RT, recognition threshold [2]: 9.0 ± 0.2^a BU
DT, detection threshold [3]: 9.5 ± 0.2^ BU
H, hedonic value [3]: −8 ± 2^a %
ME, magnitude estimation [3]: 11 ± 2^a %
RT, recognition threshold [3]: 11.0 ± 0.2^a BU
DT, detection threshold [4]: 6.9 ± 0.2^ BU
H, hedonic value [4]: −28 ± 2^ %
ME, magnitude estimation [4]: 35 ± 2^ %
RT, recognition threshold [4]: 8.2 ± 0.2^a BU
DT, detection threshold [5]: 4.0 ± 0.6 BU
H, hedonic value [5]: −40 ± 13%
ME, magnitude estimation [5]: 45 ± 11%
RT, recognition threshold [5]: 5.2 ± 0.5 BU
ME increases [6]: 12%
increases in H values [6]: 9%
DT, detection threshold [7]: 7.0 ± 0.3^c BU
H, hedonic estimation [7]: −26 ± 3^b %
ME, magnitude estimation [7]: 33 ± 3^a %
RT, recognition threshold [7]: 8.5 ± 0.3^a BU
DT, detection threshold [8]: 8.8 ± 0.5^ BU
H, hedonic value [8]: −7 ± 3^a %
ME, magnitude estimation [8]: 12 ± 3^a %
RT, recognition threshold [8]: 10.6 ± 0.4^ BU
DT, detection threshold [9]: 6.3 ± 0.3^a BU
H, hedonic value [9]: −34 ± 3^ %
ME, magnitude estimation [9]: 41 ± 3^a %
RT, recognition threshold [9]: 7.7 ± 0.3^a BU
DT, detection threshold [10]: 5.0 BU
H, hedonic value [10]: −40%
ME, magnitude estimation [10]: 45%
RT, recognition threshold [10]: 5.0 BU
DT, detection threshold [11]: 7.4 ± 0.2^c BU
H, hedonic estimation [11]: −19 ± 2^ %
ME, magnitude estimation [11]: 26 ± 2^d %
RT, recognition threshold [11]: 9.4 ± 0.2^c BU
DT, detection threshold [12]: 8.9 ± 0.3^b BU
H, hedonic value [12]: −8 ± 2^a %
ME, magnitude estimation [12]: 11 ± 3^a %
RT, recognition threshold [12]: 10.9 ± 0.3^ BU
DT, detection threshold [13]: 6.7 ± 0.3^a BU
H, hedonic value [13]: −25 ± 3^ %
ME, magnitude estimation [13]: 33 ± 2^ %
RT, recognition threshold [13]: 8.9 ± 0.3^ BU
DT, detection threshold [14]: 3.8 ± 0.9 BU
H, hedonic value [14]: −26 ± 22%
ME, magnitude estimation [14]: 41 ± 15%
RT, recognition threshold [14]: 5.5 ± 0.9 BU
DT, detection threshold [15]: 6.9 ± 0.6 BU
H, hedonic estimation [15]: −22 ± 6%
ME, magnitude estimation [15]: 29 ± 5%
RT, recognition threshold [15]: 8.5 ± 0.6^c BU
DT, detection threshold [16]: 9.6 ± 0.8^ BU
H, hedonic value [16]: −11 ± 5^a %
ME, magnitude estimation [16]: 10 ± 4^a %
RT, recognition threshold [16]: 10.3 ± 1.0^ BU
DT, detection threshold [17]: 4.7 ± 0.7^a BU
H, hedonic value [17]: −31 ± 9^ %
ME, magnitude estimation [17]: 43 ± 5^c %
RT, recognition threshold [17]: 7.1 ± 0.7^a BU
decrease of H values [18]: 2%
increase of ME values [18]: 5%
DT, detection threshold [19]: 7.5 ± 0.2^c BU
H, hedonic estimation [19]: −15 ± 2^d %
ME, magnitude estimation [19]: 21 ± 2 ^ %
RT, recognition threshold [19]: 9.1 ± 0.2^c BU
DT, detection threshold [20]: 10.1 ± 0.3^d BU
H, hedonic value [20]: −3 ± 2^a %
ME, magnitude estimation [20]: 6 ± 2^a %
RT, recognition threshold [20]: 11.4 ± 0.2^ BU
DT, detection threshold [21]: 6.5 ± 0.3^ BU
H, hedonic value [21]: −19 ± 2^ %
ME, magnitude estimation [21]: 27 ± 2^ %
RT, recognition threshold [21]: 8.2 ± 0.3^a BU
DT, detection threshold [22]: 3.2 ± 0.8 BU
H, hedonic value [22]: −40 ± 18%
ME, magnitude estimation [22]: 47 ± 15%
RT, recognition threshold [22]: 3.8 ± 0.6 BU
ME increases [23]: 12%
increases in H values [23]: 7%
DT, detection threshold [24]: 6.8 ± 0.4^c BU
H, hedonic estimation [24]: −19 ± 2^d %
ME, magnitude estimation [24]: 26 ± 2^c %
RT, recognition threshold [24]: 8.4 ± 0.3^a BU
DT, detection threshold [25]: 9.8 ± 0.5^a BU
H, hedonic value [25]: −5 ± 2^a %
ME, magnitude estimation [25]: 7 ± 2^a %
RT, recognition threshold [25]: 10.8 ± 0.4^ BU
DT, detection threshold [26]: 5.7 ± 0.4^ BU
H, hedonic value [26]: −23 ± 3^ %
ME, magnitude estimation [26]: 31 ± 3^ %
RT, recognition threshold [26]: 7.6 ± 0.4^a BU
DT, detection threshold [27]: 1 BU
H, hedonic value [27]: −99%
ME, magnitude estimation [27]: 99%
RT, recognition threshold [27]: 1 BU
DT, detection threshold [28]: 7.1 ± 0.3^a BU
H, hedonic estimation [28]: −14 ± 2 ^ %
ME, magnitude estimation [28]: 21 ± 2^d %
RT, recognition threshold [28]: 9.0 ± 0.3^c BU
DT, detection threshold [29]: 9.4 ± 0.4^a BU
H, hedonic value [29]: −3 ± 2^a %
ME, magnitude estimation [29]: 7 ± 2^a %
RT, recognition threshold [29]: 10.9 ± 0.3^d BU
DT, detection threshold [30]: 6.1 ± 0.3^a BU
H, hedonic value [30]: −20 ± 2^ %
ME, magnitude estimation [30]: 27 ± 2^ %
RT, recognition threshold [30]: 8.1 ± 0.3^a BU
DT, detection threshold [31]: 2.0 ± 1.0 BU
H, hedonic value [31]: −35 ± 24%
ME, magnitude estimation [31]: 42 ± 20%
RT, recognition threshold [31]: 3.8 ± 0.9 BU
DT, detection threshold [32]: 7.2 ± 0.7 BU
H, hedonic estimation [32]: −15 ± 4%
ME, magnitude estimation [32]: 20 ± 4%
RT, recognition threshold [32]: 9.6 ± 0.6 BU
DT, detection threshold [33]: 10.0 ± 0.7^ BU
H, hedonic value [33]: −4 ± 2^a %
ME, magnitude estimation [33]: 4 ± 2^a %
RT, recognition threshold [33]: 11.6 ± 0.2^ BU
DT, detection threshold [34]: 4.9 ± 0.7^a BU
H, hedonic value [34]: −24 ± 8^ %
ME, magnitude estimation [34]: 33 ± 6^ %
RT, recognition threshold [34]: 8.0 ± 1.0^ BU
